# Measurements published in ChEMBL document CHEMBL1201862, “PubChem BioAssay data set” (2004).
#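 All cell lines were grown in 96-well plates and treated with compound for 48 hours. GI50 marks 50% less growth.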 Calls of active or inactive are those of the source. Rule as the data show it: active = GI50 up to about 1.1 µM and inactive = higher.
# How the values were obtained:
# Experiment in all cases: NCI-60 cell line screen, 48 h
# [1] = tested on: RXF 393
# [2] = tested on: BT-549
# [3] = tested on: SF-539
# [4] = tested on: NCI-H226
# [5] = tested on: SK-MEL-2
# [6] = tested on: TK-10
# [7] = tested on: MCF7
# [8] = tested on: HOP-62
# [9] = tested on: LOX IMVI
# [10] = tested on: KM12
# [11] = tested on: CAKI-1
# [12] = tested on: M14
# [13] = tested on: Malme-3M
# [14] = tested on: A498
# [15] = tested on: SW-620
# [16] = tested on: COLO 205
# [17] = tested on: CCRF-CEM
# [18] = tested on: MDA-MB-435
# [19] = tested on: PC-3
# [20] = tested on: ACHN
# [21] = tested on: MOLT-4
# [22] = tested on: U-251
# [23] = tested on: OVCAR-5
# [24] = tested on: NCI/ADR-RES
# [25] = tested on: DU-145
# [26] = tested on: SK-MEL-28
# [27] = tested on: SNB-19
# [28] = tested on: HT-29
# [29] = tested on: UACC-62
# [30] = tested on: HL-60
# [31] = tested on: OVCAR-3
# [32] = tested on: MDA-N
# [33] = tested on: SK-OV-3
# [34] = tested on: UO-31
# [35] = tested on: SF-268
# [36] = tested on: OVCAR-4
# [37] = tested on: NCI-H23
# [38] = tested on: RPMI-8226
# [39] = tested on: T47D
# [40] = tested on: Hs-578T
# [41] = tested on: NCI-H522
# [42] = tested on: K562
# [43] = tested on: MDA-MB-231
# [44] = tested on: SR
# [45] = tested on: A549
# [46] = tested on: HCT-15
# [47] = tested on: SN12C
# [48] = tested on: OVCAR-8
# [49] = tested on: IGROV-1
# [50] = tested on: SF-295
# [51] = tested on: UACC-257
# [52] = tested on: SK-MEL-5
# [53] = tested on: 786-0
# [54] = tested on: HCT-116
# [55] = tested on: HOP-92
# [56] = tested on: EKVX
# [57] = tested on: SNB-75
# [58] = tested on: NCI-H460
smiles,measurement,setting,value
CC1(C)CCN2C(=O)C34CCCC3CC21S4 (configuration not stated),GI50,[1],> 100 µM (inactive)
same,GI50,[2],> 100 µM (inactive)
same,GI50,[3],> 100 µM (inactive)
same,GI50,[4],> 100 µM (inactive)
same,GI50,[5],> 100 µM (inactive)
same,GI50,[6],> 100 µM (inactive)
same,GI50,[7],> 100 µM (inactive)
same,GI50,[8],> 100 µM (inactive)
same,GI50,[9],> 100 µM (inactive)
same,GI50,[10],> 100 µM (inactive)
same,GI50,[11],> 100 µM (inactive)
same,GI50,[12],> 100 µM (inactive)
same,GI50,[13],> 100 µM (inactive)
same,GI50,[14],> 100 µM (inactive)
same,GI50,[15],> 100 µM (inactive)
same,GI50,[16],> 100 µM (inactive)
same,GI50,[17],78 µM (inactive)
same,GI50,[18],> 100 µM (inactive)
same,GI50,[19],> 100 µM (inactive)
same,GI50,[20],> 100 µM (inactive)
same,GI50,[21],> 100 µM (inactive)
same,GI50,[22],> 100 µM (inactive)
same,GI50,[23],> 100 µM (inactive)
same,GI50,[24],> 100 µM (inactive)
same,GI50,[25],> 100 µM (inactive)
same,GI50,[26],> 100 µM (inactive)
same,GI50,[27],> 100 µM (inactive)
same,GI50,[28],> 100 µM (inactive)
same,GI50,[29],> 100 µM (inactive)
same,GI50,[30],> 100 µM (inactive)
same,GI50,[31],> 100 µM (inactive)
same,GI50,[32],> 100 µM (inactive)
same,GI50,[33],> 100 µM (inactive)
same,GI50,[34],> 100 µM (inactive)
same,GI50,[35],> 100 µM (inactive)
same,GI50,[36],> 100 µM (inactive)
same,GI50,[37],> 100 µM (inactive)
same,GI50,[38],> 100 µM (inactive)
same,GI50,[39],> 100 µM (inactive)
same,GI50,[40],> 100 µM (inactive)
same,GI50,[41],> 100 µM (inactive)
same,GI50,[42],> 100 µM (inactive)
same,GI50,[43],> 100 µM (inactive)
same,GI50,[44],> 100 µM (inactive)
same,GI50,[45],> 100 µM (inactive)
same,GI50,[46],> 100 µM
same,GI50,[47],> 100 µM (inactive)
same,GI50,[48],> 100 µM (inactive)
same,GI50,[49],> 100 µM (inactive)
same,GI50,[50],> 100 µM (inactive)
same,GI50,[51],> 100 µM (inactive)
same,GI50,[52],> 100 µM (inactive)
same,GI50,[53],> 100 µM (inactive)
same,GI50,[54],> 100 µM (inactive)
same,GI50,[55],> 100 µM (inactive)
same,GI50,[56],> 100 µM (inactive)
N=C(N)N/N=C/c1nc2n(c1[N+](=O)[O-])CCS2,GI50,[1],20.8 µM (inactive)
same,GI50,[2],31.6 µM (inactive)
same,GI50,[3],29 µM (inactive)
same,GI50,[4],35.8 µM (inactive)
same,GI50,[5],17.5 µM (inactive)
same,GI50,[6],40.7 µM (inactive)
same,GI50,[7],15 µM (inactive)
same,GI50,[8],41.4 µM (inactive)
same,GI50,[57],23.9 µM (inactive)
same,GI50,[9],15.7 µM (inactive)
same,GI50,[10],25 µM (inactive)
same,GI50,[11],> 100 µM (inactive)
same,GI50,[12],25.2 µM (inactive)
same,GI50,[13],15.6 µM (inactive)
same,GI50,[14],43.3 µM (inactive)
same,GI50,[15],28.4 µM (inactive)
same,GI50,[16],14 µM (inactive)
same,GI50,[18],27.9 µM (inactive)
same,GI50,[19],31.6 µM (inactive)
same,GI50,[20],> 100 µM (inactive)
same,GI50,[21],22.2 µM (inactive)
same,GI50,[22],15.7 µM (inactive)
same,GI50,[23],43.8 µM (inactive)
same,GI50,[24],> 100 µM (inactive)
same,GI50,[25],27.3 µM (inactive)
same,GI50,[26],43.7 µM (inactive)
same,GI50,[27],27.5 µM (inactive)
same,GI50,[28],30.2 µM (inactive)
same,GI50,[29],42.8 µM (inactive)
same,GI50,[30],22.5 µM (inactive)
same,GI50,[31],7.35 µM (inactive)
same,GI50,[32],32.1 µM (inactive)
same,GI50,[33],45.3 µM (inactive)
same,GI50,[34],> 100 µM (inactive)
same,GI50,[35],10.6 µM (inactive)
same,GI50,[36],16.2 µM (inactive)
same,GI50,[37],14.5 µM (inactive)
same,GI50,[38],52 µM (inactive)
same,GI50,[58],18.1 µM (inactive)
same,GI50,[39],17.3 µM (inactive)
same,GI50,[40],30.3 µM (inactive)
same,GI50,[41],12.9 µM (inactive)
same,GI50,[43],29 µM (inactive)
same,GI50,[44],14.5 µM (inactive)
same,GI50,[45],26.8 µM (inactive)
same,GI50,[46],65.3 µM
same,GI50,[47],22 µM (inactive)
same,GI50,[48],15.7 µM (inactive)
same,GI50,[49],50.2 µM (inactive)
same,GI50,[50],26.4 µM (inactive)
same,GI50,[51],17.1 µM (inactive)
same,GI50,[52],18.5 µM (inactive)
same,GI50,[53],38.6 µM (inactive)
same,GI50,[54],21.9 µM (inactive)
same,GI50,[55],> 100 µM (inactive)
same,GI50,[56],22.9 µM (inactive)
O=S(=O)(O)c1cc(O)c2c(O)c(/N=N/c3cccc4ccccc34)c(S(=O)(=O)O)cc2c1,GI50,[1],> 100 µM (inactive)
same,GI50,[2],> 100 µM (inactive)
same,GI50,[3],> 100 µM (inactive)
same,GI50,[4],> 100 µM (inactive)
same,GI50,[5],> 100 µM (inactive)
same,GI50,[6],> 100 µM (inactive)
same,GI50,[7],> 100 µM (inactive)
same,GI50,[8],> 100 µM (inactive)
same,GI50,[57],> 100 µM (inactive)
same,GI50,[9],> 100 µM (inactive)
same,GI50,[10],> 100 µM (inactive)
same,GI50,[11],> 100 µM (inactive)
same,GI50,[12],> 100 µM (inactive)
same,GI50,[13],> 100 µM (inactive)
same,GI50,[14],> 100 µM (inactive)
same,GI50,[15],> 100 µM (inactive)
same,GI50,[16],> 100 µM (inactive)
same,GI50,[18],> 100 µM (inactive)
same,GI50,[19],> 100 µM (inactive)
same,GI50,[20],> 100 µM (inactive)
same,GI50,[21],> 100 µM (inactive)
same,GI50,[22],> 100 µM (inactive)
same,GI50,[23],> 100 µM (inactive)
same,GI50,[24],> 100 µM (inactive)
same,GI50,[25],> 100 µM (inactive)
same,GI50,[26],> 100 µM (inactive)
same,GI50,[27],> 100 µM (inactive)
same,GI50,[28],> 100 µM (inactive)
same,GI50,[29],> 100 µM (inactive)
same,GI50,[31],> 100 µM (inactive)
same,GI50,[32],> 100 µM (inactive)
same,GI50,[33],> 100 µM (inactive)
same,GI50,[34],> 100 µM (inactive)
same,GI50,[35],> 100 µM (inactive)
same,GI50,[36],> 100 µM (inactive)
same,GI50,[37],> 100 µM (inactive)
same,GI50,[38],> 100 µM (inactive)
same,GI50,[39],> 100 µM (inactive)
same,GI50,[40],> 100 µM (inactive)
same,GI50,[41],> 100 µM (inactive)
same,GI50,[42],> 100 µM (inactive)
same,GI50,[43],> 100 µM (inactive)
same,GI50,[44],> 100 µM (inactive)
same,GI50,[45],> 100 µM (inactive)
same,GI50,[46],> 100 µM
same,GI50,[47],> 100 µM (inactive)
same,GI50,[48],> 100 µM (inactive)
same,GI50,[49],> 100 µM (inactive)
same,GI50,[50],> 100 µM (inactive)
same,GI50,[51],> 100 µM (inactive)
same,GI50,[52],> 100 µM (inactive)
same,GI50,[53],> 100 µM (inactive)
same,GI50,[54],> 100 µM (inactive)
same,GI50,[55],> 100 µM (inactive)
same,GI50,[56],> 100 µM (inactive)
